Experiment [1] has as its target T1, WRN (Homo sapiens, UniProt Q14191).
T1 construct: A His-tagged construct of WRN (AA S2-S1235) was produced and used for the ATPase assay; His; made in house; host or cells: Sf9 insect cells (baculovirus, pFastBac1)
As to the kind of experiment: WRN ATPase activity assay (ADP-Glo). It is filed as biochemical. Particulars: 1-hr pre-incubation with enzyme; 100 μM ATP, 25 nM forked dsDNA, 1 nM WRN; geometric mean of at least 2 replicates. The method, then: Compounds of the Examples were tested for WRN ATPase activity. WRN ATPase activity catalyzes ATP hydrolysis to produce ADP and phosphate. DNA encoding the target protein, 6×HIS-TEV-WRN-517-945, was produced, cloned and transfected as detailed in Example D. The amount of ADP produced was measured using ADP-Glo™ Kinase Assay kit from Promega Corporation in a Greiner white regular volume 384 wells assay plate (Greiner #781075). Data was normalized to a standard curve generated using various ADP concentrations and the corresponding luminescent signal intensities at each concentration. The assay conditions were optimized for enzyme concentration (WRN), substrate concentrations (ATP & dsDNA), and the linearity of the ATPase reaction, in the following assay buffer: 50 mM Tris-HCl, pH-7.5, 2 mM MgCl2, 50 mM NaCl, 1 mM EGTA, 0.01% P-20, 0.05% BSA, and 2 mM DTT prepared with nuclease free water.
A serial dilution (1:3 scheme) of the compounds were prepared in neat DMSO, with 100 nL of the compounds dispensed in the 384 wells assay plate. An 1-hr pre-incubation of the compounds with enzyme was included. A His-tagged construct of WRN (AA S2-S1235) was produced and used for the ATPase assay. Maximum inhibition control wells were set up with the addition of only assay buffer, and no inhibition control wells were set up with neat DMSO without test compounds. The reaction was initiated by addition of 5 μL substrate mix (200 μM ultrapure ATP, and 50 nM dsDNA prepared in assay buffer) and incubated at 25° C. for 35 min. A forked dsDNA oligomer substrate was prepared by annealing equal amounts of oligo GPat-1 ([BHQ2][…]) and oligo GPat-2 ([…][TAM]) and was used as dsDNA substrate for WRN ATPase assay. A typical ATPase reaction consists of 25 nM forked dsDNA, 100 μM ATP, and 1 nM WRN prepared in assay buffer. The WRN ATPase reaction was stopped by the addition of 5 μL of ADP-Glo Reagent from ADP-Glo™ Kinase Assay kit and incubated for 40 min to deplete the unreacted ATP. Afterwards, 5 μL of Kinase Detection Reagent from the ADP-Glo™ Kinase Assay kit was added and incubated for 1 hr for the development of luminescence signal.
Luminesce signals were measured on BMG PHERAstar FSX using luminescence protocol. Data analysis was carried out using Genedata software following % of control normalization. Fitting parameters include dose response IC50, Hill slope (n), maximum inhibition (S∞), and minimum inhibition (S0). The reported IC50 values for compounds in this invention are the geometric means of at least 2 independent replicates.
In general terms: In ADP-Glo the light output rises with the ADP produced.

For experiment [2], the target named is T1, WRN. As to the kind of experiment: WRN Helicase activity assay (fluorescence DNA unwinding). The experiment is classed as biochemical. As to conditions: 1-hr pre-incubation with enzyme; 100 μM ATP, 25 nM forked dsDNA, 1 nM WRN; geometric mean of at least 2 replicates. As for the experimental part: Compounds of the examples were tested for WRN helicase activity. DNA encoding the target protein, 6×HIS-TEV-WRN-517-945, was produced, cloned and transfected as detailed in Example D. To determine the inhibitory properties of the compounds, a 384 wells plate-based Helicase assay was set up to measure the extent of DNA unwinding (Helicase) activity of WRN. The WRN Helicase assay was designed to measure increase in fluorescence signal using a fluorescence based, donor-quencher paired forked dsDNA oligomer substrate (custom synthesis from Sigma-Aldrich) prepared by annealing equal amounts of oligo GPat-1 ([BHQ2][…]) and oligo GPat-2 ([…][TAM]). Continuous measurement of fluorescent signal was used to optimize the buffer conditions, concentration of enzyme (WRN), concentration of substrates (ATP & dsDNA), and the linearity of the Helicase reaction. All solutions were prepared in the following assay buffer: 50 mM Tris-HCl, pH-7.5, 2 mM MgCl2, 50 mM NaCl, 1 mM EGTA, 0.01% P-20, 0.05% BSA, and 2 mM DTT prepared with nuclease free water.
A serial dilution (1:3 scheme) of the compounds was prepared in neat DMSO and 100 nL of the compounds was dispensed in the Greiner black low volume (Greiner #784076) 384 wells assay plate. An 1-hr pre-incubation of the compounds with enzyme was included. A His-tagged construct of WRN (AA S2-S1235) was produced and used for the ATPase assay. Maximum inhibition control wells were set up with the addition of only assay buffer, and no inhibition control wells were set up with neat DMSO without test compounds. The reaction was initiated by addition of 5 μL substrate mix (200 μM ultrapure ATP, and 50 nM dsDNA prepared in assay buffer) and incubated at 25° C. for 35 min. A typical Helicase reaction consists of 25 nM forked dsDNA, 100 μM ATP, and 1 nM WRN prepared in assay buffer. The WRN Helicase reaction was quenched by the addition of 5 μL ‘STOP’ solution containing 100 mM EDTA (final EDTA concentration 33.33 mM) prepared in assay buffer. The plates were read on BMG PHERAstar FSX using 540/590 module to measure an increase of fluorescence. Data analysis was carried out using the Genedata software following % of control normalization. Fitting parameters include dose response IC50, Hill slope (n), maximum inhibition (S∞), and minimum inhibition (S0). The reported IC50 values for compounds in this invention are the geometric means of at least 2 independent replicates.

In general, IC50 refers to the point on the concentration scale where inhibition reaches its midpoint. A high value points to weaker potency.

T1 sequence (Q14191 2-1235): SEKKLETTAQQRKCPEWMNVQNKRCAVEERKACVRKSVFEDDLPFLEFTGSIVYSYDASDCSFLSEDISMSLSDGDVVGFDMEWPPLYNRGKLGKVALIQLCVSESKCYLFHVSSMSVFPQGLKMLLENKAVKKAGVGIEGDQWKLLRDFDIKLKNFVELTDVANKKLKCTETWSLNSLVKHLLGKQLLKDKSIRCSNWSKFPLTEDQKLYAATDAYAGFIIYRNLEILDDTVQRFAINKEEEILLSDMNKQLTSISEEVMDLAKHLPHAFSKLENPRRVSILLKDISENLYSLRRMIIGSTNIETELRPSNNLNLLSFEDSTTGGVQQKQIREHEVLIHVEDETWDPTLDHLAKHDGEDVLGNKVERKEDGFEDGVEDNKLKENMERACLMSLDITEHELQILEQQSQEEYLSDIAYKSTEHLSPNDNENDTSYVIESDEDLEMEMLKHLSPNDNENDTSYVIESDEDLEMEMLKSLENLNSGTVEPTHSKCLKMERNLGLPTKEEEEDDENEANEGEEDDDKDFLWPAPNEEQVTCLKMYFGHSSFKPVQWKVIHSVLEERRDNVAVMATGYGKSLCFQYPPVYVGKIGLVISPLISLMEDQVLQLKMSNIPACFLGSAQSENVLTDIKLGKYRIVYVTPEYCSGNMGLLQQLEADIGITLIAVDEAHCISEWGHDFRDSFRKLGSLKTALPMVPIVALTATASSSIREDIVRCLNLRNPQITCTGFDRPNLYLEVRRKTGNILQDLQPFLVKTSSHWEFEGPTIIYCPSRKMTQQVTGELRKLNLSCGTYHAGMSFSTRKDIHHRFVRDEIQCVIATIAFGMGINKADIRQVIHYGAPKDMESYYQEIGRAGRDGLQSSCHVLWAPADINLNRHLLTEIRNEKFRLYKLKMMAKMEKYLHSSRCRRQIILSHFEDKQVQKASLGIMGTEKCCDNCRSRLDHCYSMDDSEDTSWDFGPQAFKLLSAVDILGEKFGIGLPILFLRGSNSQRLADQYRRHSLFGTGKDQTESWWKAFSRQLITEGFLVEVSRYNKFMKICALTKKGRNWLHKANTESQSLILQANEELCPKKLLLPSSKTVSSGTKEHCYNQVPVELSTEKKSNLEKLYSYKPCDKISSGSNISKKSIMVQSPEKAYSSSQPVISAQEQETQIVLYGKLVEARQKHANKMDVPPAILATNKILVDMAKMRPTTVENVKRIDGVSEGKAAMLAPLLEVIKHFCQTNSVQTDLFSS

Turning to `C=CC(=O)Nc1ccccc1-c1c(CC)nc2n(CC(=O)Nc3ccc(F)cc3)c3ccccc3n2c1=O` [Example 1, N-(2-(2-Ethyl-10-(2-((4-fluorophenyl)amino)-2-oxoethyl)-4-oxo-4,10-dihydrobenzo[4,5]imidazo[1,2-a]pyrimidin-3-yl)phenyl)acrylamide], the IC50 at WRN [1] and against WRN [2] was under 100 nM each time.

Turning to `C=CC(=O)Nc1ccccc1-c1c(CC)nc2n(CC(=O)Nc3ccccc3)c3ccccc3n2c1=O` [Example 2, N-(2-(2-Ethyl-4-oxo-10-(2-oxo-2-(phenylamino)ethyl)-4,10-dihydrobenzo[4,5]imidazo[1,2-a]pyrimidin-3-yl)phenyl)acrylamide], the IC50 against WRN [1] and against WRN [2] was under 100 nM throughout.

As to `C=CC(=O)Nc1ccccc1-c1c(CC)nc2n(CC(=O)Nc3ccc(C(F)(F)F)cc3)c3ccccc3n2c1=O` [Example 3, N-(2-(2-Ethyl-4-oxo-10-(2-oxo-2-((4-(trifluoromethyl)phenyl)amino)ethyl)-4,10-dihydrobenzo[4,5]imidazo[1,2-a]pyrimidin-3-yl)phenyl)acrylamide], the half-inhibitory concentration (IC50) against WRN [1] and on WRN [2] was under 100 nM each time.

In the case of `C=CC(=O)Nc1ccccc1-c1c(CC)nc2n(CC(=O)Nc3ccc(C(F)(F)F)cc3Cl)c3ccccc3n2c1=O` [Example 4, N-(2-(10-(2-((2-Chloro-4-(trifluoromethyl)phenyl)amino)-2-oxoethyl)-2-ethyl-4-oxo-4,10-dihydrobenzo[4,5]imidazo[1,2-a]pyrimidin-3-yl)phenyl)acrylamide], the IC50 against WRN [1] and on WRN [2] was under 100 nM throughout.

Regarding `C=CC(=O)Nc1ccccc1-c1c(CC)nc2n(CC(=O)Nc3ccc(CC)cc3)c3ccccc3n2c1=O` [Example 5, N-(2-(2-Ethyl-10-(2-((4-ethylphenyl)amino)-2-oxoethyl)-4-oxo-4,10-dihydrobenzo[4,5]imidazo[1,2-a]pyrimidin-3-yl)phenyl)acrylamide], the IC50 against WRN [1] and against WRN [2] was under 100 nM in each case.

Regarding `C=CC(=O)Nc1ccccc1-c1c(CC)nc2n(CC(=O)Nc3ccc(F)cc3Cl)c3ccccc3n2c1=O` [Example 6, N-(2-(10-(2-((2-Chloro-4-fluorophenyl)amino)-2-oxoethyl)-2-ethyl-4-oxo-4,10-dihydrobenzo[4,5]imidazo[1,2-a]pyrimidin-3-yl)phenyl)acrylamide], the IC50 on WRN [1] and on WRN [2] was under 100 nM each time.

For the compound `C=CC(=O)Nc1ccccc1-c1c(CC)nc2n(CC(=O)Nc3cccc(C(F)(F)F)c3)c3ccccc3n2c1=O` [Example 7, N-(2-(2-Ethyl-4-oxo-10-(2-oxo-2-((3-(trifluoromethyl)phenyl)amino)ethyl)-4,10-dihydrobenzo[4,5]imidazo[1,2-a]pyrimidin-3-yl)phenyl)acrylamide], the IC50 at WRN [1] and against WRN [2] was 100 to 500 nM in each case.

Take `C=CC(=O)Nc1ccccc1-c1c(CC)nc2n(CC(=O)Nc3ccc(F)c(F)c3)c3ccccc3n2c1=O` [Example 8, N-(2-(10-(2-((3,4-Difluorophenyl)amino)-2-oxoethyl)-2-ethyl-4-oxo-4,10-dihydrobenzo[4,5]imidazo[1,2-a]pyrimidin-3-yl)phenyl)acrylamide]: the IC50 at WRN [1] and at WRN [2] was under 100 nM each time.

Regarding `C=CC(=O)Nc1ccccc1-c1c(CC)nc2n(CC(=O)Nc3ccc(F)cc3C)c3ccccc3n2c1=O` [Example 9, N-(2-(2-Ethyl-10-(2-((4-fluoro-2-methylphenyl)amino)-2-oxoethyl)-4-oxo-4,10-dihydrobenzo[4,5]imidazo[1,2-a]pyrimidin-3-yl)phenyl)acrylamide], the IC50 against WRN [1] and against WRN [2] was under 100 nM in each case.

In the case of `C=CC(=O)Nc1ccccc1-c1c(CC)nc2n(CC(=O)NC3CCCCC3)c3ccccc3n2c1=O` [Example 10, N-(2-(10-(2-(Cyclohexylamino)-2-oxoethyl)-2-ethyl-4-oxo-4,10-dihydrobenzo[4,5]imidazo[1,2-a]pyrimidin-3-yl)phenyl)acrylamide], the IC50 at WRN [1] and at WRN [2] was 1000 to 5000 nM throughout.

As for `C=CC(=O)Nc1ccc(C(=O)OC)cc1-c1c(CC)nc2n(CC(=O)Nc3ccc(F)cc3)c3ccccc3n2c1=O` [Example 11, Methyl 4-acrylamido-3-(2-ethyl-10-(2-((4-fluorophenyl)amino)-2-oxoethyl)-4-oxo-4,10-dihydrobenzo[4,5]imidazo[1,2-a]pyrimidin-3-yl)benzoate], the IC50 at WRN [1] and on WRN [2] was under 100 nM throughout.

In the case of `C=CC(=O)Nc1ccc(C(=O)NCCO)cc1-c1c(CC)nc2n(CC(=O)Nc3ccc(F)cc3)c3ccccc3n2c1=O` [Example 12, 4-Acrylamido-3-(2-ethyl-10-(2-((4-fluorophenyl)amino)-2-oxoethyl)-4-oxo-4,10-dihydrobenzo[4,5]imidazo[1,2-a]pyrimidin-3-yl)-N-(2-hydroxyethyl) benzamide], the IC50 against WRN [1] and at WRN [2] was 100 to 500 nM throughout.

As for `C=CC(=O)Nc1ccc(C(=O)NCCOC)cc1-c1c(CC)nc2n(CC(=O)Nc3ccc(F)cc3)c3ccccc3n2c1=O` [Example 13, 4-Acrylamido-3-(2-ethyl-10-(2-((4-fluorophenyl)amino)-2-oxoethyl)-4-oxo-4,10-dihydrobenzo[4,5]imidazo[1,2-a]pyrimidin-3-yl)-N-(2-methoxyethyl) benzamide], the IC50 against WRN [1] and at WRN [2] was 100 to 500 nM throughout.

On to `C=CC(=O)Nc1ccc(C(=O)N2CC3CC3(O)C2)cc1-c1c(CC)nc2n(CC(=O)Nc3ccc(F)cc3)c3ccccc3n2c1=O` (stereo not drawn) [Example 14, N-(2-(2-Ethyl-10-(2-((4-fluorophenyl)amino)-2-oxoethyl)-4-oxo-4,10-dihydrobenzo[4,5]imidazo[1,2-a]pyrimidin-3-yl)-4-(1-hydroxy-3-azabicyclo[3.1.0]hexane-3-carbonyl)phenyl) acrylamide], for which the 50% inhibitory concentration (IC50) on WRN [1] and at WRN [2] was 100 to 500 nM each time.

On to `C=CC(=O)Nc1cc(C#N)ccc1-c1c(CC)nc2n(CC(=O)Nc3ccc(C(F)(F)F)cc3)c3ccccc3n2c1=O` [Example 15, N-(5-Cyano-2-(2-ethyl-4-oxo-10-(2-oxo-2-((4-(trifluoromethyl)phenyl)amino)ethyl)-4,10-dihydrobenzo[4,5]imidazo[1,2-a]pyrimidin-3-yl)phenyl)acrylamide], for which the IC50 on WRN [1] and on WRN [2] was under 100 nM each time.

These data come from patent publication US20250215006A1, “TRICYCLIC COMPOUNDS AS INHIBITORS OF WRN” (Incyte Corporation, priority 2023, published 2025).
